Experiments:
[1] = target: T1, recombinant human α1D receptor (Homo sapiens, UniProt P25100); test: Adrenergic α1D selectivity assay, [3H]-prazosin binding to membranes; conditions: inhibition of [3H]-prazosin binding, HEK cell membranes, read-out: α1 bind pIC50 (converted)
T1 construct: expressed in transfected cells; host or cells: human embryonic kidney 293 cells (HEK93 [sic]), membranes
T1 sequence (P25100 1-572): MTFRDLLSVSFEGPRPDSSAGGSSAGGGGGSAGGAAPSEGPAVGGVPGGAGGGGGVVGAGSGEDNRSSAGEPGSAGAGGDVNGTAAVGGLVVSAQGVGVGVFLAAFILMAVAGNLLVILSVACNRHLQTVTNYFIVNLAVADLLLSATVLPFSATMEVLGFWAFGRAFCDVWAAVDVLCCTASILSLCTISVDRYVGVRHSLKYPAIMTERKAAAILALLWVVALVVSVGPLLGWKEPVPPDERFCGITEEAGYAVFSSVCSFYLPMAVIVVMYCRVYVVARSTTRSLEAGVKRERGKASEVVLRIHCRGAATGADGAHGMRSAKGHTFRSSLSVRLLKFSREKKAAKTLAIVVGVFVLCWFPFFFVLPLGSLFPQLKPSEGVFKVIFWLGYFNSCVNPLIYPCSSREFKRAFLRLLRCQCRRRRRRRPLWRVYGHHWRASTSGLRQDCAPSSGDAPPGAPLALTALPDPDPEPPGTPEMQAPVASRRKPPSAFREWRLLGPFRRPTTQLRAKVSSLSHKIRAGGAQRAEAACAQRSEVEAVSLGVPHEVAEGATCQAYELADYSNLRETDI
How it was run: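 Competition binding on HEK293 membranes with recombinant human α1D receptor, 0.3 nM [3H]-prazosin, 50 mM HEPES/1 mM EDTA pH 7.4, 2 h at room temperature; filtration and scintillation counting. Non-specific binding defined with 10 μM BMY7378. pIC50 from four-parameter logistic fit of specific-binding inhibition.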

Adrenergic β2 = target: T2, Adrenergic β2 (Homo sapiens, UniProt P07550); test: Adrenergic β2 mediated cAMP production in H292 cells (AlphaScreen cAMP detection); type: cell-based; parameters: key to β2 Int Act: fraction of formoterol maximum activity (formoterol = 1); conditions: for β2 Int Act: Intrinsic Activity as a fraction relative to the maximum activity determined for formoterol; for EC50: cAMP production, 60 minutes at room temperature, 300 μM rolipram, read-out: β2 pEC50 (converted)
T2 construct: Adherent H292 cells were removed from tissue culture flasks; endogenous in cells; host or cells: H292 cells
How it was run: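 H292 cells pre-treated 10 min with rolipram (300 μM final), then given agonist for 60 min at room temperature in HBSS/10 mM HEPES pH 7.4, 1.6% DMSO final. Lysate cAMP measured by AlphaScreen against a cAMP standard curve. Four-parameter fit gives pEC50; intrinsic activity relative to formoterol maximum.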

T2 sequence (P07550 whole entry): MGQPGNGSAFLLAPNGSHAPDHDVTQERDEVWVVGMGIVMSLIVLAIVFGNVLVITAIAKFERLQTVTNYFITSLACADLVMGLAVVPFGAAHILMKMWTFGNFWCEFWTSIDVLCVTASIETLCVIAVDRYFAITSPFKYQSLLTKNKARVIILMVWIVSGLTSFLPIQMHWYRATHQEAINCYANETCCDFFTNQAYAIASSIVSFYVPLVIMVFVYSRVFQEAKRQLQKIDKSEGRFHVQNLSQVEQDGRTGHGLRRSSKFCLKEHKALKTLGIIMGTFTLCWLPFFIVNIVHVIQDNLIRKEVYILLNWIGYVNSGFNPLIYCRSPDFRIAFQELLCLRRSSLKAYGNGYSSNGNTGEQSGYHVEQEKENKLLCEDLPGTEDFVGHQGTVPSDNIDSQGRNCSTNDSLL

IC50 [1] [nM] | β2 Int Act (Adrenergic β2) | EC50 (Adrenergic β2) [nM] | Compound
126 | 0.89 | 2 | O=C1COc2c(CCNCCN(C(=O)CCNCCc3cccc(Cl)c3)C3CCCCC3)ccc(O)c2N1 [Example 27, 3-(3-Chlorophenethylamino)-N-cyclohexyl-N-(2-(2-(5-hydroxy-3-oxo-3,4-dihydro-2H-benzo[b][1,4]oxazin-8-yl)ethylamino)ethyl)propanamide bis(trifluoroacetate)]
126 | 0.91 | 5.01 | O=C1COc2c(CCNCCN(C(=O)CCNCCc3cccc(Cl)c3Cl)C3CCCCC3)ccc(O)c2N1 [Example 29, N-Cyclohexyl-3-(2,3-dichlorophenethylamino)-N-(2-(2-(5-hydroxy-3-oxo-3,4-dihydro-2H-benzo[b][1,4]oxazin-8-yl)ethylamino)ethyl)propanamide bis(trifluoroacetate)]
158 | 0.94 | 6.31 | O=C1COc2c(CCNCCN(C(=O)CCNCCc3ccc(Cl)cc3Cl)C3CCCCC3)ccc(O)c2N1 [Example 31, N-Cyclohexyl-3-(2,4-dichlorophenethylamino)-N-(2-(2-(5-hydroxy-3-oxo-3,4-dihydro-2H-benzo[b][1,4]oxazin-8-yl)ethylamino)ethyl)propanamide bis(trifluoroacetate)]
251 | 1.03 | 3.16 | O=C1COc2c(CCNCCN(C(=O)CCNCCc3ccc(Cl)cc3)C3CCCCC3)ccc(O)c2N1 [Example 32, 3-(4-Chlorophenethylamino)-N-cyclohexyl-N-(2-(2-(5-hydroxy-3-oxo-3,4-dihydro-2H-benzo[b][1,4]oxazin-8-yl)ethylamino)ethyl)propanamide bis(trifluoroacetate)]
398 | 0.87 | 1.58 | O=C1COc2c(CCNCCN(C(=O)CCNCCc3cc(F)cc(F)c3)C3CCCCC3)ccc(O)c2N1 [Example 35, N-Cyclohexyl-3-(3,5-difluorophenethylamino)-N-(2-(2-(5-hydroxy-3-oxo-3,4-dihydro-2H-benzo[b][1,4]oxazin-8-yl)ethylamino)ethyl)propanamide bis(trifluoroacetate)]
398 | 0.91 | 1.26 | O=C1COc2c(CCNCCN(C(=O)CCNCCc3cccc(F)c3F)C3CCCCC3)ccc(O)c2N1 [Example 36, N-Cyclohexyl-3-(2,3-difluorophenethylamino)-N-(2-(2-(5-hydroxy-3-oxo-3,4-dihydro-2H-benzo[b][1,4]oxazin-8-yl)ethylamino)ethyl)propanamide bis(trifluoroacetate)]
158 | 0.89 | 2 | O=C1COc2c(CCNCCN(C(=O)CCNCCc3ccc(F)c(Cl)c3)C3CCCCC3)ccc(O)c2N1 [Example 37, 3-(3-Chloro-4-fluorophenethylamino)-N-cyclohexyl-N-(2-(2-(5-hydroxy-3-oxo-3,4-dihydro-2H-benzo[b][1,4]oxazin-8-yl)ethylamino)ethyl)propanamide bis(trifluoroacetate)]
158 | 0.98 | 1.26 | O=C1COc2c(CCNCCN(C(=O)CCNCCc3cc(F)ccc3F)C3CCCCC3)ccc(O)c2N1 [Example 38, N-Cyclohexyl-3-(2,5-difluorophenethylamino)-N-(2-(2-(5-hydroxy-3-oxo-3,4-dihydro-2H-benzo[b][1,4]oxazin-8-yl)ethylamino)ethyl)propanamide bis(trifluoroacetate)]
501 | 0.98 | 1.58 | O=C1COc2c(CCNCCN(C(=O)CCNCCc3cccc(Cl)c3F)C3CCCCC3)ccc(O)c2N1 [Example 39, 3-(3-Chloro-2-fluorophenethylamino)-N-cyclohexyl-N-(2-(2-(5-hydroxy-3-oxo-3,4-dihydro-2H-benzo[b][1,4]oxazin-8-yl)ethylamino)ethyl)propanamide bis(trifluoroacetate)]
31.6 | 0.96 | 251 | Cc1cc(CCNCCC(=O)N(CCNCCc2ccc(O)c3c2OCC(=O)N3)C2CCCCC2)ccc1F [Example 40, N-Cyclohexyl-3-(4-fluoro-3-methylphenethylamino)-N-(2-(2-(5-hydroxy-3-oxo-3,4-dihydro-2H-benzo[b][1,4]oxazin-8-yl)ethylamino)ethyl)propanamide bis(trifluoroacetate)]
251 | 0.95 | 3.16 | O=C1COc2c(CCNCCN(C(=O)CCNCCc3cc(F)cc(Cl)c3)C3CCCCC3)ccc(O)c2N1 [Example 41, 3-(3-Chloro-5-fluorophenethylamino)-N-cyclohexyl-N-(2-(2-(5-hydroxy-3-oxo-3,4-dihydro-2H-benzo[b][1,4]oxazin-8-yl)ethylamino)ethyl)propanamide (trifluoroacetate)]
200 | 0.9 | 2 | O=C1COc2c(CCNCCN(C(=O)CCNCCc3ccc(F)c(F)c3)C3CCCCC3)ccc(O)c2N1 [Example 42, N-Cyclohexyl-3-(3,4-difluorophenethylamino)-N-(2-(2-(5-hydroxy-3-oxo-3,4-dihydro-2H-benzo[b][1,4]oxazin-8-yl)ethylamino)ethyl)propanamide bis(trifluoroacetate)]
> 10000 | 0.97 | 31.6 | O=C1COc2c(CCNCCN(C(=O)CCNCCc3ccc(C(=O)O)cc3)C3CCCCC3)ccc(O)c2N1 [Example 43, 4-(2-(3-(Cyclohexyl(2-(2-(5-hydroxy-3-oxo-3,4-dihydro-2H-benzo[b][1,4]oxazin-8-yl)ethylamino)ethyl)amino)-3-oxopropylamino)ethyl)benzoic acid bis(trifluoroacetate)]
50.1 | 0.89 | 2 | CCCC[C@@H](C)N(CCNCCc1ccc(O)c2c1OCC(=O)N2)C(=O)CCNCCc1cccc(Cl)c1 [Example 44, (R)-3-(3-Chlorophenethylamino)-N-(hexan-2-yl)-N-(2-(2-(5-hydroxy-3-oxo-3,4-dihydro-2H-benzo[b][1,4]oxazin-8-yl)ethylamino)ethyl)propanamide bis(trifluoroacetate)]
251 | 0.89 | 5.01 | CCCC[C@@H](C)N(CCNCCc1ccc(O)c2c1OCC(=O)N2)C(=O)CCNCCc1ccc(Cl)cc1 [Example 45, (R)-3-(4-Chlorophenethylamino)-N-(hexan-2-yl)-N-(2-(2-(5-hydroxy-3-oxo-3,4-dihydro-2H-benzo[b][1,4]oxazin-8-yl)ethylamino)ethyl)propanamide bis(trifluoroacetate)]
79.4 | 0.89 | 1.26 | CCCC[C@@H](C)N(CCNCCc1ccc(O)c2c1OCC(=O)N2)C(=O)CCNCCc1ccccc1Cl [Example 46, (R)-3-(2-Chlorophenethylamino)-N-(hexan-2-yl)-N-(2-(2-(5-hydroxy-3-oxo-3,4-dihydro-2H-benzo[b][1,4]oxazin-8-yl)ethylamino)ethyl)propanamide bis(trifluoroacetate)]
79.4 | 0.89 | 1.58 | CCCC[C@@H](C)N(CCNCCc1ccc(O)c2c1OCC(=O)N2)C(=O)CCNCCc1ccc(F)c(C)c1 [Example 47, (R)-3-(4-Fluoro-3-methylphenethylamino)-N-(hexan-2-yl)-N-(2-(2-(5-hydroxy-3-oxo-3,4-dihydro-2H-benzo[b][1,4]oxazin-8-yl)ethylamino)ethyl)propanamide bis(trifluoroacetate)]
126 | 0.91 | 2 | CCCC[C@@H](C)N(CCNCCc1ccc(O)c2c1OCC(=O)N2)C(=O)CCNCCc1ccc(F)c(Cl)c1 [Example 48, (R)-3-(3-Chloro-4-fluorophenethylamino)-N-(hexan-2-yl)-N-(2-(2-(5-hydroxy-3-oxo-3,4-dihydro-2H-benzo[b][1,4]oxazin-8-yl)ethylamino)ethyl)propanamide bis(trifluoroacetate)]

Compound | IC50 [1] [nM] | β2 Int Act (Adrenergic β2) | EC50 (Adrenergic β2) [nM]
O=C1COc2c(CCNCCN(C(=O)CCNCCc3ccc(Cl)c(Cl)c3)C3CCCCC3)ccc(O)c2N1 [Example 30, N-Cyclohexyl-3-(3,4-dichlorophenethylamino)-N-(2-(2-(5-hydroxy-3-oxo-3,4-dihydro-2H-benzo[b][1,4]oxazin-8-yl)ethylamino)ethyl)propanamide bis(trifluoroacetate)] | 251 | 0.92 | 3.98
